Results taken from patent publication US20240415819A1, “MACROCYCLIC COMPOUNDS AS PROTEASOME SUBUNIT BETA TYPE-5 INHIBITORS” (Lead Discovery Center GmbH, priority 2021, published 2024).

Legend:
[1] = system: A549 (human lung carcinoma cell line); experiment: Glo assay of A549 cells (Table 3; ProteasomeGlo plating scheme); assay type: cell-based; details: Homo sapiens; A549 cells; read-out: PGLo A549
In short: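 After acoustic compound transfer, plates incubate 105 min (37° C., 5% CO2). Proteasome-Glo reagent containing Suc-LLVY-Glo substrate is added, plates are shaken, then luminescence is measured after 10-15 min to derive IC50 [nM]. Staurosporine and DMSO serve as controls.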

[2] = target: T1, β5 subunit of the human constitutive proteasome (CPS) (Homo sapiens, UniProt P28074); experiment: β5 inhibition assay, human constitutive proteasome (Suc-LLVY-AMC); assay type: biochemical; details: IC50 class, Suc-LLVY-AMC substrate
T1 construct: purchased Boston Biochem E-360
Protocol: The enzymatic activity of the β5 subunit of the human constitutive proteasome (CPS) is analyzed. In another assay, which differs from the assay of the human constitutive proteasome only in using the human immunoproteasome (IPS) the enzymatic activity of the β5 subunit of the human immunoproteasome (IPS) is analyzed. […] Inhibition is indicated as IC50 [nM] (“-”=not measured).

[3] = system: RPMI 8226 (B lymphocyte cell line, multiple myeloma); experiment: 48 hr CTG viability assay, RPMI 8226; assay type: cell-based; details: Homo sapiens, RPMI-8226; 48 hr CTG; read-out: RPMI-8226 IC50
In short: (§1)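 Growth inhibition by compound over 48 h; IC50 (nM) derived from duplicate CellTiter-Glo luminescence readings across 0.0015–10 uM.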

[4] = target: T2, β5 subunit of the human immunoproteasome (IPS) (Homo sapiens, UniProt P28062); experiment: β5 inhibition assay, human immunoproteasome (Suc-LLVY-AMC); assay type: biochemical; details: IC50 class, Suc-LLVY-AMC substrate
T2 construct: purchased Boston Biochem E-370
In short: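 β5 activity is read as liberated AMC fluorescence (355/460 nm) after 4 h dark reaction at RT with 22.6 μM Suc-LLVY-AMC, stopped by 1 μM bortezomib. Beforehand, 1 nM human IPS and compound sat 10 min at RT in HEPES pH 7.5 buffer containing NaCl, 0.02% SDS and DTT.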

[5] = system: Hs 746T (human gastric carcinoma cell line); experiment: 48 hr CTG viability assay, Hs 746T; assay type: cell-based; details: Hs746T, 48 hr CTG, read-out: Hs 746T IC50
In short: as §1

[6] = system: MM1 S (B lymphoblast cell line); experiment: 48 hr CTG viability assay, MM1S; assay type: cell-based; details: Homo sapiens, 48 hr CTG, read-out: MM1S IC50
In short: as §1

Measured: IC50

COc1ccc(OCCC(=O)N[C@H]2CC(=O)N3CCCC(CCOc4ccc(C)c(c4)CNC(=O)[C@H](CCc4ccccc4)NC2=O)C3)cc1 (stereo partly drawn) [Compound 622, 3-(4-methoxyphenoxy)-N-((9S,12S)-5^4-methyl-8,11,14-trioxo-9-phenethyl-4-oxa-7,10-diaza-1(3,1)-piperidina-5(1,3)-benzenacyclotetradecaphane-12-yl)propanamide]
< 0.1 µM: all assays above

Cc1ccc2cc1CNC(=O)[C@H](CCc1ccccc1)NC(=O)[C@@H](NC(=O)CCOCCC1CCCC1)CC(=O)N1CCCC(CCO2)C1 (stereo partly drawn) [Compound 623, 3-(2-cyclopentylethoxy)-N-((9S,12S)-5^4-methyl-8,11,14-trioxo-9-phenethyl-4-oxa-7,10-diaza-1(3,1)-piperidina-5(1,3)-benzenacyclotetradecaphane-12-yl)propanamide]
< 0.1 µM: all assays above

Cc1ccc2cc1CNC(=O)[C@H](CCc1ccccc1)NC(=O)[C@@H](NC(=O)Cc1ccccc1)CCOC(=O)N1CCCC(CCO2)C1 (stereo partly drawn) [Compound 624, N-((9S,12S)-5^4-methyl-8,11,16-trioxo-9-phenethyl-4,15-dioxa-7,10-diaza-1(3,1)-piperidina-5(1,3)-benzenacyclohexadecaphane-12-yl)-2-phenylacetamide]
< 0.1 µM: all assays above

Cc1ccc2cc1CNC(=O)[C@H](CCc1ccccc1)NC(=O)[C@@H](NC(=O)CCOCC1CCCC1)CC(=O)N1CCCC(CCO2)C1 (stereo partly drawn) [Compound 625, 3-(cyclopentylmethoxy)-N-((9S,12S)-5^4-methyl-8,11,14-trioxo-9-phenethyl-4-oxa-7,10-diaza-1(3,1)-piperidina-5(1,3)-benzenacyclotetradecaphane-12-yl)propanamide]
< 0.1 µM: all assays above

Cc1ccc2cc1CNC(=O)[C@H](CCc1ccccc1)NC(=O)[C@@H](NC(=O)CCOCCCC1CC1)CC(=O)N1CCCC(CCO2)C1 (stereo partly drawn) [Compound 626, 3-(3-cyclopropylpropoxy)-N-((9S,12S)-5^4-methyl-8,11,14-trioxo-9-phenethyl-4-oxa-7,10-diaza-1(3,1)-piperidina-5(1,3)-benzenacyclotetradecaphane-12-yl)propanamide]
< 0.1 µM: all assays above

Cc1ccc2cc1CNC(=O)[C@H](CCc1ccccc1)NC(=O)[C@@H](NC(=O)CCOCCC1CCC1)CC(=O)N1CCCC(CCO2)C1 (stereo partly drawn) [Compound 627, 3-(2-cyclobutylethoxy)-N-((9S,12S)-5^4-methyl-8,11,14-trioxo-9-phenethyl-4-oxa-7,10-diaza-1(3,1)-piperidina-5(1,3)-benzenacyclotetradecaphane-12-yl)propanamide]
< 0.1 µM: all assays above

Cc1ccc2cc1CNC(=O)[C@H](CCc1ccccc1)NC(=O)[C@@H](NC(=O)CCOCC1CCC1)CC(=O)N1CCCC(CCO2)C1 (stereo partly drawn) [Compound 628, 3-(cyclobutylmethoxy)-N-((9S,12S)-5^4-methyl-8,11,14-trioxo-9-phenethyl-4-oxa-7,10-diaza-1(3,1)-piperidina-5(1,3)-benzenacyclotetradecaphane-12-yl)propanamide]
< 0.1 µM: all assays above

Cc1ccc2cc1CNC(=O)[C@H](CCc1ccccc1)NC(=O)[C@@H](NC(=O)CCOC1CCCC1)CC(=O)N1CCCC(CCO2)C1 (stereo partly drawn) [Compound 629, 3-(cyclopentyloxy)-N-((9S,12S)-5^4-methyl-8,11,14-trioxo-9-phenethyl-4-oxa-7,10-diaza-1(3,1)-piperidina-5(1,3)-benzenacyclotetradecaphane-12-yl)propanamide]
< 0.1 µM: all assays above

Cc1ccc2cc1CNC(=O)[C@H](CCc1ccccc1)NC(=O)[C@@H](NC(=O)CCOCCC1CC1)CC(=O)N1CCCC(CCO2)C1 (stereo partly drawn) [Compound 630, 3-(2-cyclopropylethoxy)-N-((9S,12S)-5^4-methyl-8,11,14-trioxo-9-phenethyl-4-oxa-7,10-diaza-1(3,1)-piperidina-5(1,3)-benzenacyclotetradecaphane-12-yl)propanamide]
< 0.1 µM: all assays above

Cc1ccc2cc1CNC(=O)[C@H](CCc1ccccc1)NC(=O)[C@@H](NC(=O)C1CC3(CCC3)C1)CC(=O)N1CCCC(CCO2)C1 (stereo partly drawn) [Compound 631, N-((9S,12S)-5^4-methyl-8,11,14-trioxo-9-phenethyl-4-oxa-7,10-diaza-1(3,1)-piperidina-5(1,3)-benzenacyclotetradecaphane-12-yl)spiro[3.3]heptane-2-carboxamide]
< 0.1 µM: all assays above

Cc1ccc2cc1CNC(=O)[C@H](CCc1ccccc1)NC(=O)[C@@H](NC(=O)OC1CCCCC1)CC(=O)N1CCCC(CCO2)C1 (stereo partly drawn) [Compound 632, cyclohexyl ((9S,12S)-5^4-methyl-8,11,14-trioxo-9-phenethyl-4-oxa-7,10-diaza-1(3,1)-piperidina-5(1,3)-benzenacyclotetradecaphane-12-yl)carbamate]
< 0.1 µM: all assays above

Cc1ccc2cc1CNC(=O)[C@H](CCc1ccccc1)NC(=O)[C@@H](NC(=O)C13CC(F)(C1)C3)CC(=O)N1CCCC(CCO2)C1 (stereo partly drawn) [Compound 633, 3-fluoro-N-((9S,12S)-5^4-methyl-8,11,14-trioxo-9-phenethyl-4-oxa-7,10-diaza-1(3,1)-piperidina-5(1,3)-benzenacyclotetradecaphane-12-yl)bicyclo[1.1.1]pentane-1-carboxamide]
< 0.1 µM: all assays above

Cc1ccc2cc1CNC(=O)[C@H](CCc1ccccc1)NC(=O)[C@@H](NC(=O)CC1COC1)CC(=O)N1CCCC(CCO2)C1 (stereo partly drawn) [Compound 635, N-((9S,12S)-5^4-methyl-8,11,14-trioxo-9-phenethyl-4-oxa-7,10-diaza-1(3,1)-piperidina-5(1,3)-benzenacyclotetradecaphane-12-yl)-2-(oxetan-3-yl)acetamide]
< 0.1 µM: all assays above

Cc1ccc2cc1CNC(=O)[C@H](CCc1ccccc1)NC(=O)[C@@H](NS(=O)(=O)Cc1ccccc1F)CC(=O)N1CCCC(CCO2)C1 (stereo partly drawn) [Compound 636, 1-(2-fluorophenyl)-N-((9S,12S)-5^4-methyl-8,11,14-trioxo-9-phenethyl-4-oxa-7,10-diaza-1(3,1)-piperidina-5(1,3)-benzenacyclotetradecaphane-12-yl)methanesulfonamide]
< 0.1 µM: all assays above
